Laboratory results: patent US20170050957A1, “4-AMINO-6-(HETEROCYCLIC)PICOLINATES AND 6-AMINO-2-(HETEROCYCLIC)PYRIMIDINE-4-CARBOXYLATES AND THEIR USE AS HERBICIDES” (Dow AgroSciences LLC, priority 2013, published 2017)

Tested on: Wheat and Barley and test plant species
Assay: Post-emergent Test III, herbicidal activity in wheat and barley (Table 17; visual injury, GR20/GR50/GR80/GR90)
Assay type: in vivo
Conditions: 21 d; for Visual Growth Reduction (%) 21 Days After Application, CIRAR / Visual Growth Reduction (%) 21 Days After Application, GALAP / Visual Growth Reduction (%) 21 Days After Application, HORVS / Visual Growth Reduction (%) 21 Days After Application, KCHSC / Visual Growth Reduction (%) 21 Days After Application, LAMPU / Visual Growth Reduction (%) 21 Days After Application, MATCH / Visual Growth Reduction (%) 21 Days After Application, PAPRH / Visual Growth Reduction (%) 21 Days After Application, SASKR / Visual Growth Reduction (%) 21 Days After Application, SINAR / Visual Growth Reduction (%) 21 Days After Application, TRZAS / Visual Growth Reduction (%) 21 Days After Application, VERPE / Visual Growth Reduction (%) 21 Days After Application, VIOTR: post-emergent
Procedure: Post-emergent Test III. Seeds of the desired test plant species were planted in Sun Gro MetroMix® 306 planting mixture, which typically has a pH of 6.0 to 6.8 and an organic matter content of about 30 percent, in plastic pots with a surface area of 103.2 square centimeters (cm^2). When required to ensure good germination and healthy plants, a fungicide treatment and/or other chemical or physical treatment was applied. The plants were grown for 7-36 days (d) in a greenhouse with an approximate 14 hour (h) photoperiod which was maintained at about 18° C. during the day and 17° C. during the night. Nutrients and water were added on a regular basis and supplemental lighting was provided with overhead metal halide 1000-Watt lamps as necessary. The plants were employed for testing when they reached the second or third true leaf stage.
A weighed amount, determined by the highest rate to be tested, of each test compound was placed in a 25 mL glass vial and was dissolved in 4 mL of a 97:3 v/v mixture of acetone and DMSO to obtain concentrated stock solutions. […] The concentrated stock solutions obtained were diluted with 20 mL of an aqueous mixture containing acetone, water, isopropyl alcohol, DMSO, Agri-Dex crop oil concentrate, and X-77 surfactant in a 48:39:10:1.5:1.5:0.02 v/v ratio to obtain spray solutions containing the highest application rates. Additional application rates were obtained by serial dilution of 12 mL of the high rate solution into a solution containing 2 mL of 97:3 v/v mixture of acetone and DMSO and 10 mL of an aqueous mixture containing acetone, water, isopropyl alcohol, DMSO, Agri-Dex crop oil concentrate, and X-77 surfactant in a 48:39:10:1.5:1.5:0.02 v/v ratio to obtain 1/2×, 1/4×, 1/8× and 1/16× rates of the high rate. Compound requirements are based upon a 12 mL application volume at a rate of 187 liters per hectare (L/ha). Formulated compounds were applied to the plant material with an overhead Mandel track sprayer equipped with 8002E nozzles calibrated to deliver 187 L/ha over an application area of 0.503 square meters at a spray height of 18 inches (43 cm) above the average plant canopy height. Control plants were sprayed in the same manner with the solvent blank.
The treated plants and control plants were placed in a greenhouse as described above and watered by subirrigation to prevent wash-off of the test compounds. After 21 d, the condition of the test plants as compared with that of the untreated plants was determined visually and scored on a scale of 0 to 100 percent where 0 corresponds to no injury and 100 corresponds to complete kill. By applying the well-accepted probit analysis as described by J. Berkson in Journal of the American Statistical […], 48, 565 (1953) and by D. Finney in “Probit Analysis” Cambridge University Press (1952), the above data can be used to calculate GR20, GR50, GR80 and GR90 values, which are defined as growth reduction factors that correspond to the effective dose of herbicide required to kill or control 20 percent, 50 percent, 80 percent or 90 percent, respectively, of a target plant.

SMILES: Nc1c(F)c(-c2ccc3cc[nH]c3c2F)nc(C(=O)O)c1Cl [Compound 1.16, 4-Amino-3-chloro-5-fluoro-6-(7-fluoro-1H-indol-6-yl)picolinic acid]
- Visual Growth Reduction (%) 21 Days After Application, CIRAR (CIRAR, 17.5 g ai/ha): D (60-74)
- Visual Growth Reduction (%) 21 Days After Application, CIRAR (CIRAR, 35 g ai/ha): B (85-94)
- Visual Growth Reduction (%) 21 Days After Application, CIRAR (CIRAR, 70 g ai/ha): A (95-100)
- GR50, CIRAR (CIRAR, dose for 50 percent growth reduction, probit analysis): 9 g ai/ha
- GR80, CIRAR (CIRAR, dose for 80 percent growth reduction, probit analysis): 25 g ai/ha
- GR90, CIRAR (CIRAR, dose for 90 percent growth reduction, probit analysis): 43 g ai/ha
- Visual Growth Reduction (%) 21 Days After Application, GALAP (GALAP, 17.5 g ai/ha): F (30-44)
- Visual Growth Reduction (%) 21 Days After Application, GALAP (GALAP, 35 g ai/ha): E (45-59)
- Visual Growth Reduction (%) 21 Days After Application, GALAP (GALAP, 70 g ai/ha): A (95-100)
- GR50, GALAP (GALAP, dose for 50 percent growth reduction, probit analysis): 26 g ai/ha
- GR80, GALAP (GALAP, dose for 80 percent growth reduction, probit analysis): 34 g ai/ha
- GR90, GALAP (GALAP, dose for 90 percent growth reduction, probit analysis): 40 g ai/ha
- Visual Growth Reduction (%) 21 Days After Application, HORVS (HORVS, 17.5 g ai/ha): G (0-29)
- Visual Growth Reduction (%) 21 Days After Application, HORVS (HORVS, 35 g ai/ha): G (0-29)
- Visual Growth Reduction (%) 21 Days After Application, HORVS (HORVS, 70 g ai/ha): F (30-44)
- GR20, HORVS (HORVS, dose for 20 percent growth reduction, probit analysis): 44 g ai/ha
- Visual Growth Reduction (%) 21 Days After Application, KCHSC (KCHSC, 17.5 g ai/ha): C (75-84)
- Visual Growth Reduction (%) 21 Days After Application, KCHSC (KCHSC, 35 g ai/ha): B (85-94)
- Visual Growth Reduction (%) 21 Days After Application, KCHSC (KCHSC, 70 g ai/ha): A (95-100)
- GR50, KCHSC (KCHSC, dose for 50 percent growth reduction, probit analysis): 7 g ai/ha
- GR80, KCHSC (KCHSC, dose for 80 percent growth reduction, probit analysis): 20 g ai/ha
- GR90, KCHSC (KCHSC, dose for 90 percent growth reduction, probit analysis): 39 g ai/ha
- Visual Growth Reduction (%) 21 Days After Application, LAMPU (LAMPU, 17.5 g ai/ha): C (75-84)
- Visual Growth Reduction (%) 21 Days After Application, LAMPU (LAMPU, 35 g ai/ha): A (95-100)
- Visual Growth Reduction (%) 21 Days After Application, LAMPU (LAMPU, 70 g ai/ha): A (95-100)
- GR50, LAMPU (LAMPU, dose for 50 percent growth reduction, probit analysis): 3 g ai/ha
- GR80, LAMPU (LAMPU, dose for 80 percent growth reduction, probit analysis): 10 g ai/ha
- GR90, LAMPU (LAMPU, dose for 90 percent growth reduction, probit analysis): 19 g ai/ha
- Visual Growth Reduction (%) 21 Days After Application, MATCH (MATCH, 17.5 g ai/ha): B (85-94)
- Visual Growth Reduction (%) 21 Days After Application, MATCH (MATCH, 35 g ai/ha): A (95-100)
- Visual Growth Reduction (%) 21 Days After Application, MATCH (MATCH, 70 g ai/ha): A (95-100)
- GR50, MATCH (MATCH, dose for 50 percent growth reduction, probit analysis): 3 g ai/ha
- GR80, MATCH (MATCH, dose for 80 percent growth reduction, probit analysis): 9 g ai/ha
- GR90, MATCH (MATCH, dose for 90 percent growth reduction, probit analysis): 16 g ai/ha
- Visual Growth Reduction (%) 21 Days After Application, PAPRH (PAPRH, 17.5 g ai/ha): A (95-100)
- Visual Growth Reduction (%) 21 Days After Application, PAPRH (PAPRH, 35 g ai/ha): A (95-100)
- Visual Growth Reduction (%) 21 Days After Application, PAPRH (PAPRH, 70 g ai/ha): A (95-100)
- GR50, PAPRH (PAPRH, dose for 50 percent growth reduction, probit analysis): 0.0004 g ai/ha
- GR80, PAPRH (PAPRH, dose for 80 percent growth reduction, probit analysis): 0.0004 g ai/ha
- GR90, PAPRH (PAPRH, dose for 90 percent growth reduction, probit analysis): 0.0004 g ai/ha
- Visual Growth Reduction (%) 21 Days After Application, SASKR (SASKR, 17.5 g ai/ha): D (60-74)
- Visual Growth Reduction (%) 21 Days After Application, SASKR (SASKR, 35 g ai/ha): C (75-84)
- Visual Growth Reduction (%) 21 Days After Application, SASKR (SASKR, 70 g ai/ha): B (85-94)
- GR50, SASKR (SASKR, dose for 50 percent growth reduction, probit analysis): 10 g ai/ha
- GR80, SASKR (SASKR, dose for 80 percent growth reduction, probit analysis): 28 g ai/ha
- GR90, SASKR (SASKR, dose for 90 percent growth reduction, probit analysis): 78 g ai/ha
- Visual Growth Reduction (%) 21 Days After Application, SINAR (SINAR, 17.5 g ai/ha): B (85-94)
- Visual Growth Reduction (%) 21 Days After Application, SINAR (SINAR, 35 g ai/ha): A (95-100)
- Visual Growth Reduction (%) 21 Days After Application, SINAR (SINAR, 70 g ai/ha): A (95-100)
- GR50, SINAR (SINAR, dose for 50 percent growth reduction, probit analysis): 5 g ai/ha
- GR80, SINAR (SINAR, dose for 80 percent growth reduction, probit analysis): 11 g ai/ha
- GR90, SINAR (SINAR, dose for 90 percent growth reduction, probit analysis): 17 g ai/ha
- Visual Growth Reduction (%) 21 Days After Application, TRZAS (TRZAS, 17.5 g ai/ha): G (0-29)
- Visual Growth Reduction (%) 21 Days After Application, TRZAS (TRZAS, 35 g ai/ha): G (0-29)
- Visual Growth Reduction (%) 21 Days After Application, TRZAS (TRZAS, 70 g ai/ha): F (30-44)
- GR20, TRZAS (TRZAS, dose for 20 percent growth reduction, probit analysis): 41 g ai/ha
- Visual Growth Reduction (%) 21 Days After Application, VERPE (VERPE, 17.5 g ai/ha): A (95-100)
- Visual Growth Reduction (%) 21 Days After Application, VERPE (VERPE, 35 g ai/ha): A (95-100)
- Visual Growth Reduction (%) 21 Days After Application, VERPE (VERPE, 70 g ai/ha): A (95-100)
- GR50, VERPE (VERPE, dose for 50 percent growth reduction, probit analysis): 0.0004 g ai/ha
- GR80, VERPE (VERPE, dose for 80 percent growth reduction, probit analysis): 0.05 g ai/ha
- GR90, VERPE (VERPE, dose for 90 percent growth reduction, probit analysis): 1 g ai/ha
- Visual Growth Reduction (%) 21 Days After Application, VIOTR (VIOTR, 17.5 g ai/ha): E (45-59)
- Visual Growth Reduction (%) 21 Days After Application, VIOTR (VIOTR, 35 g ai/ha): D (60-74)
- Visual Growth Reduction (%) 21 Days After Application, VIOTR (VIOTR, 70 g ai/ha): C (75-84)
- GR50, VIOTR (VIOTR, dose for 50 percent growth reduction, probit analysis): 19 g ai/ha
- GR80, VIOTR (VIOTR, dose for 80 percent growth reduction, probit analysis): 56 g ai/ha
- GR90, VIOTR (VIOTR, dose for 90 percent growth reduction, probit analysis): 99 g ai/ha
